Source: patent US20190298743A1, “TREATMENT OF PAIN” (Takeda Pharmaceutical Company Limited, priority 2016, published 2019)

How the values were obtained:
[1] = tested on: PAR2; test: BRET receptor trafficking, PAR2-RLuc8 with early endosomal marker Rab5a-venus in HEK293 cells; assay type: cell-based
Protocol: (§1) Bret studies of receptor trafficking were conducted to quantify PAR2 internalisation (RIT-venus) and trafficking to early endosomes (Rab5a-venus) upon stimulation with different agonists.
(§2) After achieving ˜50% confluency within 10 cm dishes HEK293 cells were transiently transfected with 1 μg PAR2-RLuc8 and 4 μg of either RIT-venus or Rab5a-venus using PEI as a transfection agent. 24 hours post transfection, cells were seeded into poly-D-lysine coated 96-well isoplates. […] When used endocytic inhibitors were diluted in 1×HBSS+1% dimethyl sulfoxide (DMSO). Following the replacement of culture media cells were allowed to equilibrate at 37° C. for 30 minutes before the addition of colenterazine H [5 μM]. After a further 5 minute incubation BRET was assessed using a LUMIstar Omega microplate reader (BMG LabTech, Offenburg, Germany), with luminescence being read at 535 nm and 475 nm. A 4 minute baseline was obtained before the addition of vehicle (1×HBSS+/−1% DMSO) or protease, measurements were then continued for a further 30 minutes. BRET ratios were calculated using LUMIstar MARS analysis software and then corrected to baseline and vehicle treatments in Microsoft Excel 2013.

[2] = Protease-evoked mechanical hyperalgesia, von Frey paw withdrawal; assay type: in vivo, mice; conditions: ipsilateral paw
Protocol: (§3) Immediately before experiments the mice were acclimatized to the experimental apparatus, room and investigator for 1-2 h on 2 successive days. Mechanical nociceptive responses were evaluated by paw withdrawal to stimulation of the plantar surface of the hind-paw with calibrated von Frey filaments. von Frey scores were measured in triplicate to establish a baseline for each animal on the day before experiments. Paw edema was estimated by measuring the thickness of the hindpaw using digital calipers before and after treatments. Mice were […] with 5% isoflurane for intraplantar injections. Dyngo4a (50 μM), PitStop2 (50 μM) or vehicle (0.2% DMSO in 0.9% NaCl) (all 10 μl) were injected into the left hindpaw. After 30 min, trypsin (10 nM), Cat-S (2.5 μM) or elastase (30 U) (all 10 μl) were injected into the same left hindpaw. von Frey scores (left and right paws) and paw thickness (left paw) were measured hourly for up to 4 h after protease injection. Investigators were blinded to the test agents.

[3] = Protease-evoked paw edema, hindpaw thickness; assay type: in vivo, mice; conditions: ipsilateral paw
Protocol: as §3

[4] = tested on: PAR2; test: Whole population FRET with cytosolic ERK sensor CytoEKAR in HEK293 cells; assay type: cell-based
Protocol: (§4) Förster Resonance Energy Transfer (FRET) was used to characterise PAR2 mediated ERK within different subcellular compartments upon stimulation with different agonists. The assays were repeated after employing pharmacological and genetic approaches shown to abolish receptor internalisation to assess the role of internalisation in generating compartmentalised signals.
(§5) After achieving ˜50% confluency within 10 cm dishes HEK293 cells were transfected with 2-5 μg of PAR2 with N-terminal HA epitope tag (PAR2-HA) and 2-5 μg of desired FRET biosensor, using PEI as a transfection agent. 24 hours after transfection, cells were seeded into poly-D-lysine coated black 96 well isoplates. FRET was assessed 48 hours after cell plating, following overnight serum restriction. […] When used endocytic inhibitors were diluted in 1×HBSS+1% dimethyl sulfoxide (DMSO). Following the replacement of culture media cells were allowed to equilibrate at 37° C. for 30 minutes. FRET was then determined using a PHERAstar FS microplate reader (BMG LabTech, Offenburg, Germany), cells were sequentially excited at 430 nm with emissions being read at 550 nm and 490 nm. A 4 minute baseline was obtained before the addition of vehicle (1×HBSS+/−1% DMSO), protease or 1 μM PDBu (serving as a positive control). Measurements were then continued every minute for a further 30 minutes. FRET ratios were then calculated and corrected to baseline and vehicle treatments in Microsoft Excel 2013.

[5] = tested on: PAR2; test: FRET biosensors for compartmentalised cAMP, PKC and ERK signals in HEK cells and rat dorsal root ganglia neurons; assay type: cell-based
Protocol: (§6) The contribution of endocytosis of protease-activated receptor-2 (PAR2) was evaluated for generation of signals in subcellular compartments that mediate protease-evoked sensitization of nociceptors. Bioluminescence resonance energy transfer (BRET) was used to assess the proximity of PAR2 to resident proteins of the plasma membrane (KRas) and endosomes (Rab5a) in HEK cells. […] Förster resonance energy transfer (FRET) biosensors targeted to the plasma membrane, cytosol or nucleus were used to examine the capacity of proteases to generate signals in subcellular compartments of HEK cells and rat dorsal root ganglia neurons. […] Dynamin inhibitor Dyngo4a, Clathrin inhibitor Pitstop2 and dominant negative β-arrestin inhibited trypsin-evoked endocytosis of PAR2, and prevented trypsin-evoked activation of cytosolic cAMP and PKC and nuclear ERK. […] To examine the link between PAR2 endocytosis, compartmentalized signaling and nociceptor sensitization, perforated patch clamp recordings were made from mouse dorsal root ganglia neurons. […] The effects of proteases on excitability were blocked by the PAR2 antagonist GB88. Thus, canonical and biased proteases sensitize nociceptors by distinct mechanisms. For canonical agonists, PAR2 endocytosis generates compartmentalized signals subcellular compartments that underlie sustained excitability of nociceptive neurons. Inhibiting endosomal signaling of PAR2 may provide a novel method of treating protease-evoked pain.

[6] = tested on: PAR2; test: BRET proximity of PAR2 to KRas (plasma membrane) and Rab5a (endosomes) in HEK cells; assay type: cell-based; conditions: HEK cells
Protocol: as §6

[7] = tested on: DRG neurons; test: Perforated patch-clamp excitability (rheobase) of isolated DRG neurons; assay type: cell-based, mice; conditions: 0 min and 30 min after washing
Protocol: To assess the effects of proteases on excitability of nociceptors, DRG neurons were preincubated with trypsin, cathepsin S, elastase or vehicle (control), washed, and rheobase and action potential discharge at a current of twice rheobase were measured at 0 min or 30 min after washing.
DRG (T9-T13) from C57BL/6 mice were digested by incubation in collagenase (1 mg/ml, Worthington Biochemical, Lakewood, N.J.) and dispase (4 mg/ml, Roche Life Science, Indianapolis, Ind.) for 10 min at 37° C., and were dispersed by trituration with a fire-polished Pasteur pipette. Cells were plated onto coverslips coated with laminin (0.017 mg/ml) and poly-D-lysine (2 mg/ml) in 24-well plates. Neurons were cultured in F12 medium (Cat N668, Lot RNBD5333, Sigma-Aldrich, St Louis, Mo. USA) containing 10% fetal calf serum, with penicillin and streptomycin and maintained at 37° C. in a humidified atmosphere of 95% air and 5% CO2 until retrieval (16 h) for electrophysiological studies.
Neuronal excitability was assessed by perforated patch-clamp recordings with amphotericin B (240 μg/ml) from small diameter neurons (<30 pF capacitance) in current clamp mode at room temperature. Only neurons with resting membrane potentials more negative than −40 mV were analyzed. Changes in excitability were quantified by measuring rheobase (minimum current to fire action potential) and numbers of action potentials discharged at twice rheobase. Recordings were made using Axopatch 200B amplifiers, digitized by Digidata 1322A and stored and processed using pClamp 10.1 software (Molecular Devices, Sunnyvale, Calif.). The recording chamber was continuously perfused with external solution at 2 ml/min. External solution was (mM): 140 NaCl, 5 KCl, 10 HEPES, 10 D-glucose, 1 MgCl2, 2 CaCl2; pH to 7.4 with 3 M NaOH. Pipette solution was (mM): 110 K-gluconate, 30 KCl, 10 HEPES, 1 MgCl2, 2 CaCl2; pH 7.25 with 1 M KOH.
DRG neurons were pre-incubated with vehicle (control) or proteases using conditions that we have reported to cause robust hyperexcitability: trypsin (50 nM, 10 min), elastase (10 U/ml, 390 nM, 30 min), Cat-S (500 nM, 60 min). Neurons were then washed and maintained in protease-free F12 medium. Neuronal excitability was assessed 0 or 30 min after washing. In some experiments, neurons were incubated with vehicle (0.3% DMSO), Dyngo4a (30 μM) or PitStop2 (15 μM) for 30 min before and during incubation with proteases.
Results are expressed as mean±SE. Two way ANOVA and post hoc Tukey's tests were used to analyze the data.

[8] = tested on: PAR2; test: Whole population FRET with nuclear ERK sensor NucEKAR in HEK293 cells; assay type: cell-based
Protocol: as §4
as §5, with “Measurements were then continued every minute for a further 30 minutes.” left out

[9] = tested on: PAR2; test: BRET receptor trafficking, PAR2-RLuc8 with plasma membrane marker RIT-venus in HEK293 cells; assay type: cell-based
Protocol: as §1, §2

With trypsin the EC50 ([1]; Rab5a-venus, CRC from AUC data, read-out: EC50 of trypsin induced internalisation of PAR2, early endosomal marker) was about 2.8 nM, the “Change in BRET between PAR2 and early endosomal marker upon agonist stimulation” value ([1]; trypsin 10 nM) was “increase in BRET” and the “Mechanical hyperalgesia after intraplantar injection of protease” value [2] was “caused mechanical hyperalgesia of the ipsilateral paw that was sustained for at least 4 h”. The “Edema after intraplantar injection of protease” value [3] was “edema of the ipsilateral paw that was maximal after 4 h”, the “Ability of agonist to produce ERK signals within the cytoplasm” value [4] was “able to produce ERK signals” and the “Signals generated by protease in subcellular compartments” value [5] was “activated cAMP and protein kinase C (PKC) at the plasma membrane and in the cytosol, and extracellular signal regulate kinase (ERK) in the nucleus and cytosol”. For the same substance, the “PAR2 endocytosis induced by agonist” value [6] was “increases BRET between PAR2 and Rab5a and decreases BRET between PAR2 and KRas”, the “Effect of protease on excitability (rheobase) of DRG neurons” value [7] was “immediate increase in excitability” and the “Ability of agonist to produce ERK signals within the nucleus” value [8] was “able to produce ERK signals”. The EC50 ([9]; RIT-venus, CRC from AUC data, read-out: EC50 of trypsin induced internalisation of PAR2, plasma membrane marker) was about 2.8 nM and the “Change in BRET between PAR2 and plasma membrane marker upon agonist stimulation” value ([9]; trypsin 10 nM) was “time dependent decrease in BRET”.
